Test results reported in patent US10385065B2, “Antibacterial compounds” (priority 2014, dated 2019).
In brackets after ≈: the same amount, converted by molar mass. Read-outs that look alike come from different tables or passages of the source.

Columns and labels:
Format in all cases: cell-based
[1] = test system: Escherichia coli ATCC 25922; assay: MIC, broth microdilution, E. coli ATCC 25922; conditions: ATCC25922, Table 1, wild type strain
[2] = test system: Haemophilus influenzae ATCC 49247; assay: MIC, H. influenzae ATCC 49247; conditions: ATCC49247, Table 4
[3] = test system: Enterococcus faecium ATCC 19434; assay: MIC, E. faecium ATCC 19434; conditions: ATCC19434, Table 2
[4] = test system: Staphylococcus aureus ATCC 29213; assay: MIC, broth microdilution, S. aureus ATCC 29213
[5] = ATCC29213, Table 1, wild type strain, read-out: MIC S. aureus ATCC 29213
[6] = ATCC 29213 / MSSA, Table 2, read-out: MIC S. aureus (MSSA) ATCC 29213 CLSI control strain

`CCn1c(=O)c2ncoc2c2cc(F)c(-c3ccc(N)c(F)c3)c(C)c21` [Compound 107, 7-(4-amino-3-fluoro-phenyl)-5-ethyl-8-fluoro-6-methyl-oxazolo[4,5-c]quinolin-4-one] gave an MIC [1] of over 100 mg/L, an MIC [2] of over 100 mg/L and an MIC [3] of over 100 mg/L. It also gave an MIC [4, 5] of 10 to 100 mg/L (≈ 28.1 to 281 µM) and an MIC [4, 6] of 10 to 100 mg/L (≈ 28.1 to 281 µM).
Compound `Cc1nc2c(=O)n(C3CC3)c3nc(-c4cc(F)c(N)cc4F)c(F)cc3c2o1` [Compound 86, 7-(4-amino-2,5-difluorophenyl)-5-cyclopropyl-8-fluoro-2-methyl-oxazolo[4,5-c]1,8-naphthyridin-4-one] has an MIC [1] of over 100 mg/L, an MIC [2] of 10 to 100 mg/L (≈ 25.9 to 259 µM) and an MIC [3] of over 100 mg/L. For the same compound, the MIC [4, 5] was over 100 mg/L and the MIC [4, 6] was 10 to 100 mg/L (≈ 25.9 to 259 µM).
`Cc1nc2c(=O)n(C3CC3)c3cc(N4CCCC(N)C4)c(F)cc3c2o1` (centres unmarked) [Compound 51, 7-(3-aminopiperidin-1-yl)-5-cyclopropyl-8-fluoro-2-methyl-oxazolo[4,5-c]quinolin-4-one] was tested, and the MIC [1] was 1 to 10 mg/L (≈ 2.81 to 28.1 µM), the MIC [2] was 1 to 10 mg/L (≈ 2.81 to 28.1 µM) and the MIC [3] was 10 to 100 mg/L (≈ 28.1 to 281 µM). The MIC [4, 5] was 1 to 10 mg/L (≈ 2.81 to 28.1 µM) and the MIC [4, 6] was 1 to 10 mg/L (≈ 2.81 to 28.1 µM).
`Cc1c(-c2ccc(O)cn2)ccc2c3ocnc3c(=O)n(C3CC3)c12` [Compound 45, 5-cyclopropyl-7-(5-hydroxypyridin-2-yl)-6-methyl-oxazolo[4,5-c]quinolin-4-one] gave an MIC [1] of over 100 mg/L, an MIC [2] of 10 to 100 mg/L (≈ 30 to 300 µM) and an MIC [3] of over 100 mg/L. The MIC [4, 5] was 10 to 100 mg/L (≈ 30 to 300 µM) and the MIC [4, 6] was 10 to 100 mg/L (≈ 30 to 300 µM).
`Cc1nc2c(=O)n(C3CC3)c3c(C)c(-c4ccc(S(N)(=O)=O)cc4)ccc3c2o1` [Compound 17] gave an MIC [1] of 1 to 10 mg/L (≈ 2.44 to 24.4 µM), an MIC [2] of under 1 mg/L and an MIC [3] of over 100 mg/L. The MIC [4, 5] was 1 to 10 mg/L (≈ 2.44 to 24.4 µM) and the MIC [4, 6] was 1 to 10 mg/L (≈ 2.44 to 24.4 µM).
`Cc1c(-c2cc(F)c(N)cc2F)ccc2c3oc(=O)[nH]c3c(=O)n(C3CC3)c12` [Compound 3, 7-(4-amino-2,5-difluoro-phenyl)-5-cyclopropyl-6-methyl-3H-oxazolo[4,5-c]quinoline-2,4-dione] gave an MIC [1] of over 100 mg/L, an MIC [2] of 1 to 10 mg/L (≈ 2.61 to 26.1 µM) and an MIC [3] of over 100 mg/L. For the same compound, the MIC [4, 5] was 1 to 10 mg/L (≈ 2.61 to 26.1 µM) and the MIC [4, 6] was 1 to 10 mg/L (≈ 2.61 to 26.1 µM).
`CCOC(=O)c1ccc(-c2cc3c(cc2F)c2ocnc2c(=O)n3C2CC2)cc1` [Compound 61, ethyl 4-(5-cyclopropyl-8-fluoro-4-oxo-oxazolo[4,5-c]quinolin-7-yl)benzoate] gave an MIC [1] of over 100 mg/L, an MIC [2] of over 100 mg/L and an MIC [3] of over 100 mg/L. The MIC [4, 5] was over 100 mg/L and the MIC [4, 6] was over 100 mg/L.
`Cc1c(-c2cnoc2)ccc2c3ocnc3c(=O)n(C3CC3)c12` [Compound 43, 5-cyclopropyl-6-methyl-7-(1,2-oxazol-4-yl)-oxazolo[4,5-c]quinolin-4-one] showed an MIC [1] of 10 to 100 mg/L (≈ 32.5 to 325 µM), an MIC [2] of 10 to 100 mg/L (≈ 32.5 to 325 µM) and an MIC [3] of over 100 mg/L. For the same compound, the MIC [4, 5] was 1 to 10 mg/L (≈ 3.25 to 32.5 µM) and the MIC [4, 6] was 1 to 10 mg/L (≈ 3.25 to 32.5 µM).
In the case of `Cc1nc2c(=O)n(C3CC3)c3c(Cl)c(N4CCC(CN)C4)c(F)cc3c2o1` (centres unmarked) [Compound 110, 7-[3-(aminomethyl)pyrrolidin-1-yl]-6-chloro-5-cyclopropyl-8-fluoro-2-methyl-oxazolo[4,5-c]quinolin-4-one], the MIC [1] is reported as under 1 mg/L and the MIC [4, 5] is reported as under 1 mg/L.
`COc1c(N2CCC(N)C2)c(F)cc2c3ocnc3c(=O)n(C3CC3)c12` (centres unmarked) [Compound 97, 7-(3-aminopyrrolidin-1-yl)-5-cyclopropyl-8-fluoro-6-methoxyoxazolo[4,5-c]quinolin-4-one] gave an MIC [1] of 1 to 10 mg/L (≈ 2.79 to 27.9 µM), an MIC [2] of 1 to 10 mg/L (≈ 2.79 to 27.9 µM) and an MIC [3] of 10 to 100 mg/L (≈ 27.9 to 279 µM). For the same compound, the MIC [4, 5] was under 1 mg/L and the MIC [4, 6] was under 1 mg/L.
`Cc1nc2c(=O)n(C3CC3)c3c(C)c(-c4cnc(C(C)(C)O)nc4)ccc3c2o1` [Compound 37, 5-cyclopropyl-7-[2-(2-hydroxypropan-2-yl)pyrimidin-5-yl]-2,6-dimethyl-oxazolo[4,5-c]quinolin-4-one] showed an MIC [1] of over 100 mg/L, an MIC [2] of 10 to 100 mg/L (≈ 25.6 to 256 µM) and an MIC [3] of over 100 mg/L. For the same compound, the MIC [4, 5] was 10 to 100 mg/L (≈ 25.6 to 256 µM) and the MIC [4, 6] was 10 to 100 mg/L (≈ 25.6 to 256 µM).
For `Nc1cc(-c2nc3c(cc2F)c2ocnc2c(=O)n3C2CC2)c(F)cc1F` [Compound 85, 7-(5-amino-2,4-difluorophenyl)-5-cyclopropyl-8-fluoro-oxazolo[4,5-c]1,8-naphthyridin-4-one], the MIC [1] was 10 to 100 mg/L (≈ 26.9 to 269 µM), the MIC [2] was 1 to 10 mg/L (≈ 2.69 to 26.9 µM) and the MIC [3] was over 100 mg/L. It also gave an MIC [4, 5] of 10 to 100 mg/L (≈ 26.9 to 269 µM) and an MIC [4, 6] of 10 to 100 mg/L (≈ 26.9 to 269 µM).
`Nc1ncc(-c2cc3c(cc2F)c2ocnc2c(=O)n3C2CC2)cn1` [Compound 62, 7-(2-aminopyrimidin-5-yl)-5-cyclopropyl-8-fluoro-oxazolo[4,5-c]quinolin-4-one] gave an MIC [1] of 10 to 100 mg/L (≈ 29.6 to 296 µM), an MIC [2] of 1 to 10 mg/L (≈ 2.96 to 29.6 µM) and an MIC [3] of over 100 mg/L. For the same compound, the MIC [4, 5] was 1 to 10 mg/L (≈ 2.96 to 29.6 µM) and the MIC [4, 6] was 1 to 10 mg/L (≈ 2.96 to 29.6 µM).
With `CNC(=O)c1ccc(-c2cc3c(cc2F)c2ocnc2c(=O)n3C2CC2)cc1F` [Compound 67, 4-(5-cyclopropyl-8-fluoro-4-oxo-oxazolo[4,5-c]quinolin-7-yl)-2-fluoro-N-methyl-benzamide] the MIC [1] was over 100 mg/L, the MIC [2] was 10 to 100 mg/L (≈ 25.3 to 253 µM) and the MIC [3] was over 100 mg/L. It also gave an MIC [4, 5] of 1 to 10 mg/L (≈ 2.53 to 25.3 µM) and an MIC [4, 6] of 1 to 10 mg/L (≈ 2.53 to 25.3 µM).
Work on `Cc1nc2c(=O)n(C3CC3)c3cc(-c4cc(F)c(C(N)=O)cc4F)c(F)cc3c2o1` [Compound 78, 4-(5-cyclopropyl-8-fluoro-2-methyl-4-oxo-oxazolo[4,5-c]quinolin-7-yl)-2,5-difluoro-benzamide] yielded an MIC [1] of over 100 mg/L, an MIC [2] of 10 to 100 mg/L (≈ 24.2 to 242 µM) and an MIC [3] of over 100 mg/L. For the same compound, the MIC [4, 5] was over 100 mg/L and the MIC [4, 6] was over 100 mg/L.
`Cc1nc2c(=O)n(C3CC3)c3nc(-c4ccc5[nH]ncc5c4)c(F)cc3c2o1` [Compound 87] gave an MIC [1] of over 100 mg/L, an MIC [2] of 10 to 100 mg/L (≈ 26.6 to 266 µM) and an MIC [3] of over 100 mg/L. For the same compound, the MIC [4, 5] was over 100 mg/L and the MIC [4, 6] was 10 to 100 mg/L (≈ 26.6 to 266 µM).
For `O=c1c2ncoc2c2cc(F)c(-c3ccncc3Cl)cc2n1C1CC1` [Compound 59, 7-(3-chloro-4-pyridyl)-5-cyclopropyl-8-fluoro-oxazolo[4,5-c]quinolin-4-one], the MIC [1] was 10 to 100 mg/L (≈ 28.1 to 281 µM), the MIC [2] was 1 to 10 mg/L (≈ 2.81 to 28.1 µM) and the MIC [3] was over 100 mg/L. The MIC [4, 5] was 1 to 10 mg/L (≈ 2.81 to 28.1 µM) and the MIC [4, 6] was 1 to 10 mg/L (≈ 2.81 to 28.1 µM).
Work on `Cc1nc2c(=O)n(C3CC3)c3cc(-c4ccncc4F)c(F)cc3c2o1` [Compound 74, 5-cyclopropyl-8-fluoro-7-(3-fluoro-4-pyridyl)-2-methyl-oxazolo[4,5-c]quinolin-4-one] yielded an MIC [1] of 10 to 100 mg/L (≈ 28.3 to 283 µM), an MIC [2] of 1 to 10 mg/L (≈ 2.83 to 28.3 µM) and an MIC [3] of over 100 mg/L. It also gave an MIC [4, 5] of 10 to 100 mg/L (≈ 28.3 to 283 µM) and an MIC [4, 6] of 10 to 100 mg/L (≈ 28.3 to 283 µM).
For `CN(C)C1CCN(c2nc3c(cc2F)c2ocnc2c(=O)n3C2CC2)C1` (centres unmarked) [Compound 83, 5-cyclopropyl-7-[3-(dimethylamino)pyrrolidin-1-yl]-8-fluoro-oxazolo[4,5-c][1,8]naphthyridin-4-one], the MIC [1] was 1 to 10 mg/L (≈ 2.8 to 28 µM), the MIC [2] was 10 to 100 mg/L (≈ 28 to 280 µM) and the MIC [3] was over 100 mg/L. The MIC [4, 5] was 10 to 100 mg/L (≈ 28 to 280 µM) and the MIC [4, 6] was 10 to 100 mg/L (≈ 28 to 280 µM).
Work on `Cc1nc2c(=O)n(C3CC3)c3c(C)c(-c4cnc(N)nc4)ccc3c2o1` [Compound 16, 7-(2-aminopyrimidin-5-yl)-5-cyclopropyl-2,6-dimethyl-oxazolo[4,5-c]quinolin-4-one] yielded an MIC [1] of 10 to 100 mg/L (≈ 28.8 to 288 µM), an MIC [2] of 10 to 100 mg/L (≈ 28.8 to 288 µM) and an MIC [3] of 10 to 100 mg/L (≈ 28.8 to 288 µM). The MIC [4, 5] was under 1 mg/L and the MIC [4, 6] was 1 to 10 mg/L (≈ 2.88 to 28.8 µM).
For `Cc1nc2c(=O)n(C3CC3)c3cc(-c4ccncc4)c(F)cc3c2o1` [Compound 75, 5-cyclopropyl-8-fluoro-2-methyl-7-(4-pyridyl)oxazolo[4,5-c]quinolin-4-one], the MIC [1] was 10 to 100 mg/L (≈ 29.8 to 298 µM), the MIC [2] was 1 to 10 mg/L (≈ 2.98 to 29.8 µM) and the MIC [3] was over 100 mg/L. It also gave an MIC [4, 5] of 1 to 10 mg/L (≈ 2.98 to 29.8 µM) and an MIC [4, 6] of 1 to 10 mg/L (≈ 2.98 to 29.8 µM).
With `Cc1nc2c(=O)n(C3CC3)c3cc(-c4ccc5[nH]ncc5c4)c(F)cc3c2o1` [Compound 73, 5-cyclopropyl-8-fluoro-7-(1H-indazol-5-yl)-2-methyl-oxazolo[4,5-c]quinolin-4-one] the MIC [1] was over 100 mg/L, the MIC [2] was 1 to 10 mg/L (≈ 2.67 to 26.7 µM) and the MIC [3] was over 100 mg/L. The MIC [4, 5] was under 1 mg/L and the MIC [4, 6] was under 1 mg/L.
